Legend:
[1] = solubility of estradiol in the solubilizing agent; * denotes literature reference; cited from earlier work
[2] = Estradiol solubility in solubilizing agents (HPLC); format: physicochemical; conditions: solubility of estradiol in the solubilizing agent, equilibrated three days
Procedure: Initial solubility was measured by dissolving micronized estradiol into various solubilizing agents until the estradiol was saturated (the estradiol/solubilizing agent equilibrated for three days), filtering the undissolved estradiol, and analyzing the resulting pharmaceutical composition for estradiol concentration by HPLC.

[3] = test system: dyspareunia; conditions: cited from earlier work

SMILES: CC(O)CO (stereo not shown) [Propylene Glycol]
- Solubility (mg/g) [1]: 75* mg/g

SMILES: CCOCCOCCO [TRANSCUTOL HP, 2-(2-ethoxyethoxy)ethanol]
- Solubility [2]: 141 mg/g

SMILES: OCCOc1ccc(/C(=C(/CCCl)c2ccccc2)c2ccccc2)cc1 [ospemifene]
- vaginal discharge, frequency relative to the placebo group ([3]; 12-week study): more than 6 times
- week until which statistically significant improvements of dyspareunia were not observed ([3]; human, in vivo): 12 week
